Consider 1 molecule from BindingDB's records for doi:10.1021/jm000496v (Welfide, 2001).

The target of the experiment is Chymotrypsinogen A (Bos taurus) (UniProt P00766). Nature of the experiment: Inhibitory activity against alpha chymotrypsin from bovine pancreas.

pKi: −log10 of the molar value.

In turn, `Nc1cnc(-c2ccc(F)cc2)n(CC(=O)NC(Cc2ccccc2)C(=O)c2nc3cc(-c4ccccc4)ccc3o2)c1=O` (stereo unspecified) [2-[5-Amino-2-(4-fluoro-phenyl)-6-oxo-6H-pyrimidin-1-yl]-N-[1-benzyl-2-oxo-2-(5-phenyl-benzooxazol-2-yl)-ethyl]-acetamide] showed a pKi of 5.79.
